# Patent publication EP2283824B1, “Compositions and formulations based on swellable matrices for sustained release of poorly soluble drugs such as clarithromycin” (Special Product's Line S.p.A., priority 2009, dated 2011)
# Key:
# [1] = Approximate solubility in water at different pH values
"solubility ([1]; pH 1, simulated gastric fluid) [mg/mL]","solubility ([1]; pH 4.5, aqueous buffer) [mg/mL]","solubility ([1]; pH 6, aqueous buffer) [mg/mL]",SMILES,"solubility (physchem; pH 1, simulated gastric fluid) [mg/mL]","solubility (physchem; pH 2, simulated gastric fluid) [mg/mL]","solubility (physchem; pH 4.5, aqueous buffer) [mg/mL]","solubility (physchem; pH 6, aqueous buffer) [mg/mL]"
26.1,3.9,3.3,CC[C@H]1OC(=O)[C@H](C)[C@@H](O[C@H]2C[C@@](C)(OC)[C@@H](O)[C@H](C)O2)[C@H](C)[C@@H](O[C@@H]2O[C@H](C)C[C@H](N(C)C)[C@H]2O)[C@](C)(OC)C[C@@H](C)C(=O)[C@H](C)[C@@H](O)[C@]1(C)O [clarithromycin],,,,
,,,CC[C@H]1OC(=O)[C@H](C)[C@@H](O[C@H]2C[C@@](C)(OC)[C@@H](O)[C@H](C)O2)[C@H](C)[C@@H](O[C@@H]2O[C@H](C)C[C@H](N(C)C)[C@H]2O)[C@](C)(O)C[C@](C)(F)C(=O)[C@H](C)[C@@H](O)[C@]1(C)O [flurithromycin],22,11.8,4.2,0.3
